In test [1] the test system is tetrabenazine-induced sedation in mice. Kind of test: Antitetrabenazine test: prevention of tetrabenazine-induced sedation and depression (exploratory activity and ptosis). The test is classed as in vivo, mice (Carworth CF1 S female). The note with it: Mus musculus, po, 1 h. On the procedure: This mouse test is predictive of human antidepressant response (Everett, G. M., "The Dopa Response Potentiation Test and Its Use in Screening for Antidepressant Drugs", pp. 164-167 in "Antidepressant Drugs", Proceedings of the First International Symposium, S. Garattini and M. N. G. Dukes, eds., 1967).
Groups of 10 Carworth CF1 S female mice, 18-21 g each, were fasted 1.5 hours and were intubated with a hydroxyguanidine as antagonist to tetrabenazine at oral doses of 5, 25 and 125 mg/kg in 0.20 ml of 1% methyl cellulose (Methocel.) Thirty minutes later the mice were challenged with tetrabenazine, 32 mg/kg intraperitoneally (dissolved in 0.20 ml of 0.05M KCl at pH 2.0). One hour after the hydroxyguanidine compound (30 minutes after tetrabenzine) the mice were examined for signs of exploratory activity and ptosis (eye-lid closure). Normal exploratory activity (relief from sedation) was recorded when a mouse lifted by the tail from a group of 10 in a testing box and placed on a stainless steel testing box lid (12.5 inch × 8 inch × 0.33 inch mesh) either turned its head horizontally 30° or moved to the edge of the screen withi 10 seconds after being placed on the screen. Relief from ptosis was recorded when exactly 2 seconds after placing the mouse facing the observer, lid closure was less than 50% in both eyes.

The test system is the same in test [2]. The description is as above. The format is in vivo, mice (Carworth CF1 S female). The note with it: up to 81 mg/kg.
Where [3] appears, read: tested as hydroxyguanidine HCl salt, tetrabenazine 32 mg/kg i.p., read-out: Antitetrabenazine ED 50, Exploratory.
Setting [4] is: tested as hydroxyguanidine HCl salt, tetrabenazine 32 mg/kg i.p., read-out: Antitetrabenazine ED 50, Ptosis.
[5] abbreviates: tetrabenazine 32 mg/kg i.p. 30 min later, read 1 h after compound, read-out: Antitetrabenazine ED 50, Exploratory.
Where [6] appears, read: tetrabenazine 32 mg/kg i.p. 30 min later, read 1 h after compound, read-out: Antitetrabenazine ED 50, Ptosis (dose which blocked ptosis in 50% of the mice).

This is an account of results in patent US3954995A, “Mono-and disubstituted hydroxyguanidines in the treatment of depression” (E. I. Du Pont de Nemours and Company, priority 1974, dated 1976).

Where two headings read alike, the source gives them in different places. Where only a bound is given, the exact number is not on record here.

Turning to `CN(C(N)=NO)c1ccccc1` [Example 1, 1-phenyl-1-methylhydroxyguanidine], the ED50 in test [1] (setting [3]) is 9 mg/kg; in test [1] (setting [4]) it was 1.1 mg/kg; in test [1] (setting [5]), > 81 mg/kg; in test [1] (setting [6]), 1.1 mg/kg.

With `CN(Cc1ccccc1)C(N)=NO` [Example 2, 1-benzyl-1-methylhydroxyguanidine], the ED50 is > 81 mg/kg in test [1] (setting [3]), 0.43 mg/kg in test [1] (setting [4]), 9 mg/kg in test [1] (setting [5]) and 0.18 mg/kg in test [1] (setting [6]).

With `CCN(Cc1ccccc1)C(N)=NO` [Example 3, 1-benzyl-1-ethylhydroxyguanidine], the ED50 in test [1] (setting [5]) amounted to 9 mg/kg; in test [1] (setting [6]), 0.39 mg/kg.

For the compound `COc1ccc(CN(C)C(N)=NO)cc1` [Example 4, 1-p-methoxybenzyl-1-methylhydroxyguanidine], the ED50 in test [1] (setting [5]) is > 81 mg/kg; in test [1] (setting [6]) it was 59 mg/kg.

On to `CN(Cc1ccc(F)cc1)C(N)=NO` [Example 5, 1-p-fluorobenzyl-1-methylhydroxyguanidine], for which the ED50 in test [1] (setting [5]) is > 81 mg/kg; in test [1] (setting [6]) it was 8.1 mg/kg.

As for `CN(Cc1ccc(Br)cc1)C(N)=NO` [Example 6, 1-p-bromobenzyl-1-methylhydroxyguanidine], the ED50 was > 81 mg/kg in test [1] (setting [5]) and 17.4 mg/kg in test [1] (setting [6]).

For the compound `Cc1ccc(CN(C)C(N)=NO)cc1` [Example 7, 1-p-methylbenzyl-1-methylhydroxyguanidine], the results for the ED50 in test [1] (setting [5]) and in test [1] (setting [6]) were > 81 mg/kg and 23 mg/kg, respectively.

Turning to `CN(Cc1ccc([N+](=O)[O-])cc1)C(N)=NO` [Example 8, 1-p-nitrobenzyl-1-methylhydroxyguanidine], the ED50 in test [1] (setting [5]) is > 81 mg/kg; in test [1] (setting [6]), 47 mg/kg.

For `CN(Cc1ccc(Cl)c(Cl)c1)C(N)=NO` [Example 9, 1-(3,4-dichlorobenzyl)-1-methylhydroxyguanidine], the figures for the ED50 in test [1] (setting [5]) and in test [1] (setting [6]) were > 81 mg/kg and 4.8 mg/kg, respectively.

On to `CN(Cc1ccc(Cl)cc1)C(N)=NO` [Example 10, 1-p-chlorobenzyl-1-methylhydroxyguanidine], for which the values for the ED50 in test [1] (setting [5]) and in test [1] (setting [6]) were > 81 mg/kg and 10.8 mg/kg, respectively.

Take `CN(C(N)=NO)c1ccc(Cl)cc1` [Example 11, 1-p-chlorophenyl-1-methylhydroxyguanidine]: the ED50 in test [1] (setting [5]) was found to be 81 mg/kg; in test [1] (setting [6]) it was 0.82 mg/kg.

As to `CCN(C(N)=NO)c1ccccc1` [Example 12, 1-phenyl-1-ethylhydroxyguanidine], the figures for the ED50 in test [1] (setting [5]) and in test [1] (setting [6]) were 15.6 mg/kg and 3 mg/kg, respectively.

As for `Cc1ccc(N(C)C(N)=NO)cc1` [Example 13, 1-p-tolyl-1-methylhydroxyguanidine], the ED50 in test [1] (setting [5]) was 3 mg/kg; in test [1] (setting [6]), 0.88 mg/kg.

As to `COc1ccc(N(C)C(N)=NO)cc1` [Example 14, 1-p-methoxyphenyl-1-methylhydroxyguanidine], the ED50 in test [1] (setting [5]) is > 81 mg/kg; in test [1] (setting [6]), 20.5 mg/kg.

Regarding `CCCN(C(N)=NO)c1ccccc1` [Example 17, 1-phenyl-1-n-propylhydroxyguanidine], the ED50 in test [1] (setting [5]) was > 81 mg/kg; in test [1] (setting [6]), 20 mg/kg.

On to `CN(C(N)=NO)C1CCCCC1` [Example 18, 1-cyclohexyl-1-methylhydroxyguanidine], for which the ED50 is > 81 mg/kg in test [1] (setting [5]) and 9 mg/kg in test [1] (setting [6]).

For `NC(=NO)NCc1ccccc1` [Example 19, 1-benzylhydroxyguanidine], the ED50 is > 81 mg/kg in test [1] (setting [3]) and 12.5 mg/kg in test [1] (setting [4]).

As to `CN(Cc1cccc(Cl)c1)C(N)=NO` [Example 20, 1-m-chlorobenzyl-1-methylhydroxyguanidine], the ED50 is > 81 mg/kg in test [1] (setting [5]) and 0.4 mg/kg in test [1] (setting [6]).

As for `CN(Cc1cccc([N+](=O)[O-])c1)C(N)=NO` [Example 21, 1-m-nitrobenzyl-1-methylhydroxyguanidine], the ED50 was > 81 mg/kg in test [1] (setting [5]) and 66 mg/kg in test [1] (setting [6]).

For `CN(C(N)=NO)c1cccc(Cl)c1` [Example 22, 1-m-chlorophenyl-1-methylhydroxyguanidine], the values for the ED50 in test [1] (setting [5]) and in test [1] (setting [6]) were > 81 mg/kg and 0.7 mg/kg, respectively.

Turning to `Cc1ccc(N(C)C(N)=NO)cc1C` [Example 23, 1-(3,4-xylyl)-1-methylhydroxyguanidine], the results for the ED50 in test [1] (setting [5]) and in test [1] (setting [6]) were > 81 mg/kg and 4.9 mg/kg, respectively.

As to `Cc1cccc(N(C)C(N)=NO)c1` [Example 24, 1-m-tolyl-1-methylhydroxyguanidine], the ED50 in test [1] (setting [6]) worked out at 0.4 mg/kg.

In the case of `CN(C(N)=NO)C1CCCC1` [Example 25, 1-cyclopentyl-1-methylhydroxyguanidine], the ED50 is > 81 mg/kg in test [1] (setting [3]) and 3 mg/kg in test [1] (setting [4]).

`CNC(=NO)Nc1ccccc1` [Example 26, 1-Phenyl-3-methyl-2-hydroxyguanidine]: the ED50 is > 81 mg/kg in test [1] (setting [5]) and 12.2 mg/kg in test [1] (setting [6]).

`CNC(=NO)NCc1ccccc1` [Example 27, 1-Benzyl-3-methyl-2-hydroxyguanidine]: the “Activity in the antitetrabenazine screen” value in test [2] was “inactive”.
